Data taken from publication PMC11960442, “In vitro activities of lipopeptides against fluconazole-resistant Candida auris” (Microbiology Spectrum, 2025).
≈ marks a conversion by molar mass, not a printed value. Where two headings read alike, the source gives them in different places. Non-standard residues stand in square brackets, D forms with d. Residues, ends and D or L forms follow the SMILES beside them. *: point of attachment. Myristoyl = CCCCCCCCCCCCCC(=O)*; Nle = CCCC[C@H](N)C(=O)O

Experiments:
C. auris = experiment: Stability of compounds: MIC after pre-incubation of the peptides; type: cell-based, Candida auris; details: peptides previously incubated for 24 and 48 hours at 37°C; no changes in MIC values
Method: Determination of MICs. […] The media used for this assay was RPMI 1640 with 2% of glucose and the concentration of antifungal and peptides tested ranged from 128 to 0.25 mg/l.
Stability of compounds The peptides were incubated at 37°C for 24 and 48 hours. They were then used to perform MIC determination as previously described.

[1] = tested on: C. auris isolates 728157, CAB-1, CAB-2; experiment: Growth curves (OD450 nm every hour for 24 h); type: cell-based, Candida auris; details: for growth: growth curve 24 h
Method: Growth Curves. The action of the peptides was assessed by growth curve measuring OD450 nm every hour for 24 h using peptides at different concentrations (0.5X, 1X, 2X MIC). […] Untreated isolates were used as control. All experiments were replicated at least three times.

[2] = tested on: C. auris isolates 728157, CAB-1, CAB-2; experiment: Time-kill experiments (CFU counts), peptides combined with fluconazole; type: cell-based, Candida auris; details: for interaction with fluconazole in time-kill: fluconazole 128 mg/L with 0.5X and 1X MIC of peptide, interpreted by White et al.; for log difference compared to single administration, time-kill: C. auris CAB-1
[3] = tested on: fluconazole-resistant C. auris isolates; details: for MIC: EUCAST broth microdilution, RPMI 1640 with 2% glucose; for MIC values: the six C. auris isolates
[4] = tested on: fluconazole-resistant C. auris isolates; experiment: microbe, parasite or virus in culture; details: Candidozyma auris, EUCAST broth microdilution, RPMI 1640 with 2% glucose
[5] = C. auris 728157, all the concentrations (0.5X, 1X, 2X MIC)
[6] = C. auris 728157, peptide at 0.5X MIC
[7] = C. auris 728157, peptide at 1X and 2X MIC
[8] = C. auris CAB-1, peptide at 1X and 2X MIC
[9] = C. auris CAB-2, peptide at 1X MIC
[10] = C. auris CAB-2, peptide at 2X MIC
[11] = fluconazole combined with 0.5X MIC of peptide, after 12 hours
[12] = C. auris CAB-2, fluconazole combined with 0.5X MIC of peptide, after 12 hours
[13] = isolate 728157 (clade I, ERG11 K143R)
[14] = isolate CAB-1 (clade I, ERG11 Y132F)
[15] = isolate CAB-2 (clade I, ERG11 Y132F)
[16] = isolate CAB-3 (clade I, ERG11 Y132F)
[17] = isolate CAB-4 (clade I, ERG11 Y132F)
[18] = isolate CAB-5 (clade I, ERG11 Y132F)

Row | Molecule | MIC after pre-incubation of the peptide (stability) (C. auris) [µg/mL] | hours of treatment after which P <0.05 compared to control (growth curve) [1, 5] [h] | delay of the start of growth compared to the control [1, 6] [h] | growth [1, 7] | growth [1, 8] | delay of the start of growth compared to the control [1, 9] [h] | growth [1, 10] | interaction with fluconazole in time-kill ([2]; C. auris 728157) | log difference compared to single administration, time-kill [2, 11] [log] | log difference, time-kill [2, 12] [log] | MIC [3, 13] [µg/mL] | MIC [3, 14] [µg/mL] | MIC [3, 15] [µg/mL] | MIC [3, 16] [µg/mL] | MIC [3, 17] [µg/mL] | MIC [3, 18] [µg/mL] | MIC values [3] [µg/mL] | MIC values ([3]; 8 mg/L expressed in µM) [µM] | MIC [4, 13] [µg/mL] | MIC [4, 14] [µg/mL] | further results
1 | CCCCCCCCCCCCCC(=O)N[C@@H](Cc1c[nH]c2ccccc12)C(=O)N[C@@H](CCCNC(=N)N)C(=O)N[C@@H](CCCNC(=N)N)C(N)=O [WR, C14-WRR-NH2] (Myristoyl-Trp-Arg-Arg-NH2) | 8 | 9 | 22 | completely inhibited | completely inhibited | 16 | completely inhibited | additive effect | 2.96 | 1.69 | 8 (≈ 11 µM) | 8 (≈ 11 µM) | 8 (≈ 11 µM) | 8 (≈ 11 µM) | 8 (≈ 11 µM) | 8 (≈ 11 µM) | 8 | 8.4 | – | – | hours of treatment after which P <0.05 compared to control (growth curve) ([1]; C. auris CAB-1, all the concentrations (0.5X, 1X, 2X MIC)): 9 h; hours of treatment after which P <0.05 compared to control (growth curve) ([1]; C. auris CAB-2, all the concentrations (0.5X, 1X, 2X MIC)): 8 h; growth after 24 hours compared to the control ([1]; peptide at 0.5X MIC, ANOVA, P <0.05): statistically significant reduction of growth
2 | CCCCCCCCCCCCCC(=O)N[C@@H](CCCC)C(=O)N[C@@H](CCCNC(=N)N)C(=O)N[C@@H](CCCNC(=N)N)C(N)=O [NeI, C14-NleRR-NH2] (Myristoyl-[Nle]-Arg-Arg-NH2) | 8 | 8 | 16 | completely inhibited | completely inhibited | 14 | completely inhibited | synergistic effect | 2.19 | 1.19 | 8 (≈ 12.3 µM) | 8 (≈ 12.3 µM) | 8 (≈ 12.3 µM) | 8 (≈ 12.3 µM) | 8 (≈ 12.3 µM) | 8 (≈ 12.3 µM) | 8 | 9 | – | – | hours of treatment after which P <0.05 compared to control (growth curve) ([1]; C. auris CAB-1, 1X and 2X MIC concentrations): 8 h; hours of treatment after which P <0.05 compared to control (growth curve) ([1]; C. auris CAB-2, 1X and 2X MIC concentrations): 7 h; log difference, time-kill ([2]; C. auris 728157, fluconazole (128 mg/L) in combination with 0.5X and 1X MIC of peptide, at 32 hours): 3.10 log; log difference, time-kill ([2]; C. auris 728157, fluconazole (128 mg/L) in combination with 0.5X and 1X MIC of peptide, at 48 hours): 3.53 log
3 | C[C@@H]1[C@H](O)[C@@H](C)/C=C/C=C/C=C/C=C/C=C/C=C/C=C/[C@H](O[C@@H]2O[C@H](C)[C@@H](O)[C@H](N)[C@@H]2O)C[C@@H]2O[C@](O)(C[C@@H](O)C[C@@H](O)[C@H](O)CC[C@@H](O)C[C@@H](O)CC(=O)O[C@H]1C)C[C@H](O)[C@H]2C(=O)O [AMB, amphotericin] | – | – | – | – | – | – | – | – | – | – | – | – | – | – | – | – | – | – | 0.5 (≈ 0.541 µM) | 1 (≈ 1.08 µM) | MIC [4, 15]: 1 µg/mL (≈ 1.08 µM); MIC [4, 16]: 1 µg/mL (≈ 1.08 µM); MIC [4, 17]: 1 µg/mL (≈ 1.08 µM); MIC [4, 18]: 1 µg/mL (≈ 1.08 µM)
4 | anidulafungin [reference compound] | – | – | – | – | – | – | – | – | – | – | 0.25 | 0.5 | 0.25 | 0.25 | 0.25 | 0.25 | – | – | – | – | –
5 | OC(Cn1cncn1)(Cn1cncn1)c1ccc(F)cc1F [FLU, fluconazole] | – | – | – | – | – | – | – | – | – | – | – | – | – | – | – | – | – | – | > 128 | 64 (≈ 209 µM) | MIC [4, 18]: 64 µg/mL (≈ 209 µM)
